In US20250367098A1, “SUNSCREEN COMPOSITION FOR LACTOBACILLUS AND S. EPIDERMIDIS PROTECTION ON SKIN” (DSM IP Assets B.V., priority 2022, published 2025):

Key:
[1] = test system: Staphylococcus epidermidis ATCC 12228; assay: In vitro UV model: bacterial survival after UV irradiation (96-well, MPN method); assay type: cell-based
Description: (§1) Accordingly, the inventors developed a targeted in vitro liquid model in 96-well microplate format to screen for UV protective actives (“UV filters”) on bacterial survival upon UV irradiation. The effects of selected UV irradiation conditions tested on microbial population of Lactobacillus crispatus (L. crispatus) and Staphylococcus epidermidis (S. epidermidis) in the presence of UV filter samples and combinations thereof were evaluated with the evolution of the residual microbial population after 4 h. The inhibition of bacterial growth, as consequence of UV irradiation, was compared to that of the same strain without UV irradiation and was expressed in percentage of survival (%). The microbial strains used in this study are listed below and their cultures are reconstituted according to the direction of the supplier collection center of the reference strain, CRBIP (Institut Pasteur Collection, France) or ATCC (American Type Culture Collection, USA): • Lactobacillus crispatus CIP 103604 • Staphylococcus epidermidis ATCC 12228 The 96-well plate was filled with the culture media (140 μL) and a calibrated inoculum (20 μL) of each bacterial strain was added to reach […] colony forming units per milliliter (cfu/mL) final concentration. After contamination, the sample was added (40 μL; 20% v/v) in triplicate and was thoroughly mixed to ensure a homogeneous distribution. Then, the plate was submitted to UV stress through an UV irradiator system (BioSun, Vilber Lourmat, France) according to the UV doses presented Table 1 below. The specific UV dose selected was between 10 and 49% survival of the microbial population. For the microbial population counts, aliquots of the contaminated samples of L. crispatus and S. epidermidis were serially diluted (4 decimal dilutions followed by 8 binary dilutions, in triplicate) in culture media on 96-wells plates with triphenyltetrazolium. Then, the plates were incubated at 37° C.±2,5° C. during 48 h taking into account the respiratory type of each strain. […] The use level of the single UV filter and combinations in the test formulations was calculated to obtain a predicted in vitro SPF value of 5.75+/−0.15 and 23.45+/−0.65, respectively (Table 2). […] The relative percentage of protection (%) was calculated from the difference between the survival percentages of samples and vehicle control (with UV irradiation) and divided to the survival percentage of the vehicle control. Consequently, the survival of each microbial population and the relative protection by the UV filter(s) were calculated and are summarized in the Table 2.

[2] = test system: Lactobacillus crispatus CIP 103604; assay: as above; assay type: cell-based
Description: as §1

Compound	protection of S. epidermidis from UV radiation (in words) ([1]; summary statement)	survival rate of L. crispatus after UV radiation (in words) ([2]; summary statement)	S. epidermidis relative protection by the UV filter(s) vs. vehicle control ([1]; 15 SED (150 mJ/cm^2 UVA+UVB), sample at 20% v/v, after 4 h)	L. crispatus relative protection by the UV filter(s) vs. vehicle control ([2]; 50 SED (500 mJ/cm^2 UVA+UVB), sample at 20% v/v, after 4 h)
CCCCC(CC)COC(=O)C(C#N)=C(c1ccccc1)c1ccccc1 (stereo not shown) [Inv. 1, Octocrylene]	efficiently protecting	particularly good survival rate	–	–
CCCCC(CC)COC(=O)c1ccc(Nc2nc(Nc3ccc(C(=O)OCC(CC)CCCC)cc3)nc(Nc3ccc(C(=O)OCC(CC)CCCC)cc3)n2)cc1 (stereo not shown) [Inv. 3, Ethylhexyl Triazone]	–	–	(+59) %	(+100) %
